According to patent US10752607B2, “Polymorphs of N-[(6-cyano-2-fluoro)-3-methoxyphenyl)methyl]-3-(methoxymethyl)-1-({4-[(2-oxopyridin-1-yl)methyl]phenyl}methyl)pyrazole-4-carboxamide as kallikrein inhibitors” (KALVISTA PHARMACEUTICALS LIMITED, priority 2016, dated 2020):
Values belong to the compound of their own block, whether it stands above or below them.

Experiments:
[1] = in vivo; cited from earlier work
[2] = system: rats; conditions: systemic administration; cited from earlier work
[3] = biological target: T1, Human FXIa (Homo sapiens, UniProt P03951); assay: Determination of the % inhibition for FXIa (fluorogenic substrate Z-Gly-Pro-Arg-AFC); format: biochemical; conditions: 40 μM test compound, 25° C.
T1 construct: purchased Enzyme Research Laboratories
T1 sequence (P03951 388-625 limits assumed): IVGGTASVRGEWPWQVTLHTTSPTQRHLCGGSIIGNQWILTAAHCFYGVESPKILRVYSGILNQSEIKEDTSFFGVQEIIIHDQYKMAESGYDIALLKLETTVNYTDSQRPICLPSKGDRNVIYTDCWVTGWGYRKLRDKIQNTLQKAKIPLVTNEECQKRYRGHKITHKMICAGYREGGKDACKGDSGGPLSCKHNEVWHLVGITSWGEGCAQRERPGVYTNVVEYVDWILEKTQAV
T1 sequence (P03951 19-387 partner limits assumed): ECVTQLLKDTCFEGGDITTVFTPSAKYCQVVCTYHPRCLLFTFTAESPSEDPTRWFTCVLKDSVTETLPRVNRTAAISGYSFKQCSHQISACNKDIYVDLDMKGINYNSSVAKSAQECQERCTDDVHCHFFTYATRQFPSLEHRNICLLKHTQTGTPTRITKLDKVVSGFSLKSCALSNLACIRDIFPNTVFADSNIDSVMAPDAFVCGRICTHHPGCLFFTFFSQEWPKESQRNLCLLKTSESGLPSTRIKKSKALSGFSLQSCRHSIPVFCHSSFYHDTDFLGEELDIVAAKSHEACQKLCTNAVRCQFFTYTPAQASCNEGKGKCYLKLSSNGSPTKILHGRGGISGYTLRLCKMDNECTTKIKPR
Procedure: Determination of the % Inhibition for FXIa
FXIa inhibitory activity in vitro was determined using standard published methods (see e.g. Johansen et al., Int. J. Tiss. Reac. 1986, 8, 185; Shori et al., Biochem. Pharmacol., 1992, 43, 1209; Stürzebecher et al., Biol. Chem. Hoppe-Seyler, 1992, 373, 1025). Human FXIa (Enzyme Research Laboratories) was incubated at 25° C. with the fluorogenic substrate Z-Gly-Pro-Arg-AFC and 40 μM of the test compound. Residual enzyme activity (initial rate of reaction) was determined by measuring the change in […].

[4] = Pharmacokinetic study, single oral dose in male Sprague-Dawley rats; format: in vivo; conditions: male Sprague-Dawley rat, 10% DMSO/10% cremophor/80% SWFI, plasma
Procedure: A pharmacokinetic study of N-[(6-cyano-2-fluoro-3-methoxyphenyl)methyl]-3-(methoxymethyl)-1-({4-[(2-oxopyridin-1-yl)methyl]phenyl}methyl)pyrazole-4-carboxamide was performed to assess the pharmacokinetics following a single oral dose in male Sprague-Dawley rats. Two rats were given a single po dose of 5 mL/kg of a nominal 2 mg/mL (10 mg/kg) composition of test compound in vehicle. Following dosing, blood samples were collected over a period of 24 hours. Sample times were 5, 15 and 30 minutes then 1, 2, 4, 6, 8 and […]. Following collection, blood samples were centrifuged and the plasma fraction analysed for concentration of test compound by LCMS.

[5] = system: LPS-induced disseminated intravascular coagulation; conditions: cited from earlier work
[6] = contacting blood with the inhibitor; cited from earlier work
[7] = system: intrinsic pathway of coagulation; conditions: in vitro; cited from earlier work

Compound: N=C(N)c1ccc(CNC(=O)c2cnn(Cc3ccccc3)c2)cc1 [ASP-440]
oral availability [1]: poor oral availability | hematoma expansion [2]: reduced hematoma expansion

inhibition at 40 µM [3]: 28% | Cmax ([4]; single po dose 5.5 mg/kg): 397 ng/mL | Tmax ([4]; single po dose 5.5 mg/kg): 30 min | Cmax ([4]; single po dose 7.8 mg/kg): 360 ng/mL | Tmax ([4]; single po dose 7.8 mg/kg): 60 min
Compound: COCc1nn(Cc2ccc(Cn3ccccc3=O)cc2)cc1C(=O)NCc1c(C#N)ccc(OC)c1F [N-[(6-cyano-2-fluoro-3-methoxyphenyl)methyl]-3-(methoxymethyl)-1-({4-[(2-oxopyridin-1-yl)methyl]phenyl}methyl)pyrazole-4-carboxamide]

Compound: Cl.NCC1CCC(C(=O)N[C@@H](Cc2ccccc2)C(=O)Nc2ccc(CC(=O)O)cc2)CC1 (stereo partly shown) [PKSI-527]
platelet count, fibrinogen level and FDP level [5]: significantly suppressed the decrease in platelet count and fibrinogen level as well as the increase in FDP level

Compound: Ecallantide
activated clotting time (ACT) [6]: increase in activated clotting time (ACT) | contact activated induced coagulation [7]: delay contact activated induced coagulation
